Measured values from patent US20060100199A1, “Novel condensed imidazole derivatives” (priority 2003, published 2006).
Structures can show the parent of a compound that is named as a salt.

Experiments:
[1] = molecular target: T1, Porcine kidney-derived DPP-IV (Sus scrofa, UniProt P22411); assay: DPPIV-inhibiting activity assay; type: biochemical; details: Gly-Pro-p-nitroanilide 0.33 mM, reaction time 20 minutes, absorbance at 405 nm
T1 construct: Porcine kidney-derived DPP-IV was dissolved in a reaction buffer; from tissue; host or cells: porcine kidney
Method: DPPIV-Inhibiting Activity Assay
Porcine kidney-derived DPP-IV was dissolved in a reaction buffer (50 mM Tris-HCl (pH 7.4)/0.1% BSA) at a concentration of 10 mg/ml. After 110 μl of this solution had been combined with 15 μl of an agent, the mixture was incubated at room temperature for 20 minutes. 25 μl of 2 mM Gly-Pro-p-nitroanilide was added (to a final concentration of 0.33 mM) to the solution to initiate the enzyme reaction. The reaction time was 20 minutes. 25 μl of 1N phosphoric acid solution was added to the reaction solution to quench the reaction.

[2] = molecular target: T2, CYP2D6 (Homo sapiens, UniProt P10635); assay: Assessment for drug-metabolizing enzyme (cytochrome P450), CYP2D6; type: in vitro ADME; details: recombinant P450, fluorescent substrate AMMC
T2 construct: purchased GENTEST Corp
Method: (§1) <Assessment for Drug-Metabolizing Enzyme (Cytochrome P450)>
(§2) The experimental conditions used are shown below. The fluorescence intensity was determined using a plate reader (CYTO FLUOR Multi-Well Plate Reader Series 4000; PerSeptive Biosystems Corp.). The degree of inhibition was determined as a mean value from nine independent assays […] using as an index the intensity fluorescence emitted from the metabolite of the fluorescent substrate.
(§3) The substrates, metabolites, inhibitors, excitation wavelengths, and fluorescence wavelengths used in the assay are shown in Table 2.

[3] = molecular target: T3, CYP2C9 (Homo sapiens, UniProt P11712); assay: Assessment for drug-metabolizing enzyme (cytochrome P450), CYP2C9; type: in vitro ADME; details: recombinant P450, fluorescent substrate MFC
T3 construct: purchased GENTEST Corp
Method: as §1, §2, §3

[4] = molecular target: T4, hERG channel (Homo sapiens, UniProt Q12809); assay: Suppression of hERG channel current; type: cell-based; details: HEK-293 cells with hERG channel gene (subtype 1), patch clamp, peak tail current at −50 mV
T4 construct: expressed in transfected cells; host or cells: HEK-293 cells (cell line established by the inventors)
Method: <Suppression of hERG Channel Current>
(1) Activity towards inhibiting the hERG channel current was evaluated according to the report Zhou, Z et al, Biophysical Journal, 74(1), 230-241 (1998).
(2) This experiment was carried out using HEK-293 cells into which the hERG channel gene (subtype 1) had been introduced (the cell line was established by the inventors).
(3) One to several days before the experiment, cells were plated on a poly-lysine-coated glass plate. The cells were cultured until the day of the experiment. At the start of the experiment, the cell-seeded glass plate was transferred into a bath for current measurement. The hERG channel current was measured by the voltage clamp method using the patch clamp technique. The current was measured using a current amplifier (Axon Instruments). The current was recorded and analyzed using pCLAMP software (Axon Instruments).
(4) The hERG channel current was induced by applying to the cells a depolarizing pulse from a holding potential of −80 mV to +20 mV for 5 seconds and to −50 mV for 4 seconds, at 20 second intervals. After the current became stable in a control solution, the cells were perfused with solutions containing various concentrations of test compounds.
(5) The amplitude of the hERG channel current was defined as the peak value of the tail current observed upon restoring the potential to −50 mV. The inhibiting effect of a test compound on the hERG channel current (IC50) was estimated based on the change in the peak value of tail current upon addition of the test compound at various concentrations. The peak value of tail current recorded for a normal solution was taken as 100%.

[5] = molecular target: T5, CYP1A2 (Homo sapiens, UniProt P05177); assay: Assessment for drug-metabolizing enzyme (cytochrome P450), CYP1A2; type: in vitro ADME; details: recombinant P450, fluorescent substrate CEC
T5 construct: purchased GENTEST Corp
T5 sequence (P05177 1-516): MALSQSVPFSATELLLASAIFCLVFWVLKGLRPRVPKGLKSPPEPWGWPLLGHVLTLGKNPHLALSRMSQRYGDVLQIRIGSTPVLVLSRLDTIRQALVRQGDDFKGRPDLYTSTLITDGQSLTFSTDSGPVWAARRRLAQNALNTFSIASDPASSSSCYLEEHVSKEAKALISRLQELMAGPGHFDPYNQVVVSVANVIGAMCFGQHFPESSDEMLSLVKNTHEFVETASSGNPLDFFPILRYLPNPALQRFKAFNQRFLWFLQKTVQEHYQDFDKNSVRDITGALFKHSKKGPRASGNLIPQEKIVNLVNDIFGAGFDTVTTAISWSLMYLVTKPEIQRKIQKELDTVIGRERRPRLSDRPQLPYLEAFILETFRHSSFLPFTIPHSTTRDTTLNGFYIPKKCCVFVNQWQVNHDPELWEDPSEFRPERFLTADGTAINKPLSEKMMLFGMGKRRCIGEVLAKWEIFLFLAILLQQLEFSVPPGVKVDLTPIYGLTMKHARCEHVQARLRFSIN
Method: as §1, §2, §3

[6] = molecular target: T6, CYP3A4 (Homo sapiens, UniProt P08684); assay: Assessment for drug-metabolizing enzyme (cytochrome P450), CYP3A4; type: in vitro ADME; details: recombinant P450, fluorescent substrate BFC
T6 construct: purchased GENTEST Corp
Method: as §1, §2, §3

[7] = test system: fasted male Wistar rats; assay: Effect on the blood glucose level of fasted male Wistar rats (in vivo test); details: oral dose of 10-30 (mg/kg); 0.5, 1 and 3 hours after administration; compared with control group treated with the medium alone
Method: Purpose: Effect of a Test Compound on the Blood Glucose Level of Fasted Male Wistar Rats
Animal: male Wistar rats (purchased from Charles River Japan, Inc.)
A test compound was suspended in 0.5% methyl cellulose (MC) solution and administered orally at a dose of 5 mL/kg. The control group was treated with a 0.5% MC solution. The solution was administered orally at a dose of 5 mL/kg.
Immediately before administering a test compound or 0.5% MC solution, and 0.5, 1, and 3 hours after the administration, without anesthetic the caudal vein was lightly cut with a razor blade to let the blood out. 10 μL of blood was collected and combined with 140 μL of 0.6 M perchloric acid solution. The sample was centrifuged at 3000 g at 4° C. for 10 minutes and the resultant supernatant was assayed with the Glucose CII TEST WAKO (Wako Pure Chemical Industries).

[8] = test system: male C57BL/6N mice; assay: Acceptable timing of administration in in vivo test; details: oral, simultaneously with vs one hour before glucose loading (2 g/kg); improvement factor for glucose tolerance compared
Method: Acceptable Timing of Administration in in vivo Test
The respective tests described below were carried out in combination with the in vivo test (administration before 0.5 hour) as described in Assay Example 2:
1. A test compound is administered simultaneously with glucose loading (2 g/kg) (the test compound is suspended in an aqueous solution of 0.5% methyl cellulose; the solution is combined with an equal volume of a glucose solution; and the mixture is administered orally at a dose of 10 ml/kg);
2. A test compound is administered one hour before glucose loading (2 g/kg) (the test compound suspended in an aqueous solution of 0.5% methyl cellulose is administered orally one hour before the oral administration of the glucose solution; each is given orally at a dose of 10 ml/kg).
The improvement factor for glucose tolerance is estimated in each test.

[9] = molecular target: T7, CYP2C19 (Homo sapiens, UniProt P33261); assay: Assessment for drug-metabolizing enzyme (cytochrome P450), CYP2C19; type: in vitro ADME; details: recombinant P450, fluorescent substrate CEC
T7 construct: purchased GENTEST Corp
Method: as §1, §2, §3

T1 sequence (P22411 whole entry): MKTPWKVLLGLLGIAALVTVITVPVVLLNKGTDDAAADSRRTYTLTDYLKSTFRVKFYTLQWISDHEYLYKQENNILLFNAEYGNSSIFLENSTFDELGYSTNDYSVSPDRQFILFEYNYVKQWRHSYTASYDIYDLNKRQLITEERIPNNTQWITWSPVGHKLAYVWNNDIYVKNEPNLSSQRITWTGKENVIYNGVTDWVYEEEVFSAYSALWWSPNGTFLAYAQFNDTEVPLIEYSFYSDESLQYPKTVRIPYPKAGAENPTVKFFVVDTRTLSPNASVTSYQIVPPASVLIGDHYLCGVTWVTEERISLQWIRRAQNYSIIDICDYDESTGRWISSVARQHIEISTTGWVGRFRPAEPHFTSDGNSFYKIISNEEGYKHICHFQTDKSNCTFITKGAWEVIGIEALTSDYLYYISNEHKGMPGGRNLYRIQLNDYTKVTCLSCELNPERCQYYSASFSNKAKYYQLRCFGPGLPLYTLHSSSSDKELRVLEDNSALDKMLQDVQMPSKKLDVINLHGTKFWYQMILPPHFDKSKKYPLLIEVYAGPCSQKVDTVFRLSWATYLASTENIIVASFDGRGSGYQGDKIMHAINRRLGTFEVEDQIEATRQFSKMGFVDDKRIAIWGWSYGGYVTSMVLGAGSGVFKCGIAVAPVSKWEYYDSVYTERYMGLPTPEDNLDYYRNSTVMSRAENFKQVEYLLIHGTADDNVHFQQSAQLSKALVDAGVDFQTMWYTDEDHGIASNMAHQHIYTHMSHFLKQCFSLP
T6 sequence (P08684 whole entry): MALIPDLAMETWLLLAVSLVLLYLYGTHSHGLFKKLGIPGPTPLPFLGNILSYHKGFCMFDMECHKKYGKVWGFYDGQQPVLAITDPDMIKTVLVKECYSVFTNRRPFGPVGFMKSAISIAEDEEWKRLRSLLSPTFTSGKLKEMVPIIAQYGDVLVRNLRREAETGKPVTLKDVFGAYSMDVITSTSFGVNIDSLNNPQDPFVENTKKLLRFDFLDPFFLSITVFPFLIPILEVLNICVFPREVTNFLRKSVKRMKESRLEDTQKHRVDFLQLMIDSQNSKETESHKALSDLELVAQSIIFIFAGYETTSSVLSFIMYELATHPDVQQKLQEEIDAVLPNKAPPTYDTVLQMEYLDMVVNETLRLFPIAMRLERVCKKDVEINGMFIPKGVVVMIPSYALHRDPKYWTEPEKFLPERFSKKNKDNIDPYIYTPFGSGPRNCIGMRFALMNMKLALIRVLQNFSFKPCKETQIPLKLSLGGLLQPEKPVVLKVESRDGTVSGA
T4 sequence (Q12809 whole entry): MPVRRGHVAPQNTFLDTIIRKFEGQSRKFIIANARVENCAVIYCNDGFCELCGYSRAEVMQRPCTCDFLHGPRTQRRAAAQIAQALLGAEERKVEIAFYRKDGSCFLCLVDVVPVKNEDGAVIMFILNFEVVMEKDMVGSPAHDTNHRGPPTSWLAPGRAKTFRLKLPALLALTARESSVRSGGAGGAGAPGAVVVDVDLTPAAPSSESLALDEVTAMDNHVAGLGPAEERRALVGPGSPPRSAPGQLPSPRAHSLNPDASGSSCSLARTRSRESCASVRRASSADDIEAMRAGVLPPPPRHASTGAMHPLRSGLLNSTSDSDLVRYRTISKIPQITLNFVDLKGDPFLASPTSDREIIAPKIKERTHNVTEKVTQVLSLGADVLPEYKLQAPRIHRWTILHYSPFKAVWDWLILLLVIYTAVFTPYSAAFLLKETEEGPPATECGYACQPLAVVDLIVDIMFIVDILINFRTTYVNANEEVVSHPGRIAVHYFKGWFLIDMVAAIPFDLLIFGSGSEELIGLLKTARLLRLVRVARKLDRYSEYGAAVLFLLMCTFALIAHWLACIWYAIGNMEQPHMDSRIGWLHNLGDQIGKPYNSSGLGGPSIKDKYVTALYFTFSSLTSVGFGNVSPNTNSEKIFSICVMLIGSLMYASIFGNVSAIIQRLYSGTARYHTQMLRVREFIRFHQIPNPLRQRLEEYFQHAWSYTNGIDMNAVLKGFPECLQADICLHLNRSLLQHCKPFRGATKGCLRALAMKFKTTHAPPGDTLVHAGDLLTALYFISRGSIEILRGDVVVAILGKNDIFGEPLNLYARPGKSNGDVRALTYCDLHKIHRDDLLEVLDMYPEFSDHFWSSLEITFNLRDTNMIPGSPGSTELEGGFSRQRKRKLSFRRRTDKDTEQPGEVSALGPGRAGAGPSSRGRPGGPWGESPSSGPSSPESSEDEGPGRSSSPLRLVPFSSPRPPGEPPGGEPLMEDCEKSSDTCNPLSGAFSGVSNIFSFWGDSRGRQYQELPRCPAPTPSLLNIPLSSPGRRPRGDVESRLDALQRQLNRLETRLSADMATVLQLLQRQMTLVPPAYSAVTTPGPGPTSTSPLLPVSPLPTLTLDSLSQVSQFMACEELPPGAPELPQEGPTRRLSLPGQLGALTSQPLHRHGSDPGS
T2 sequence (P10635 whole entry): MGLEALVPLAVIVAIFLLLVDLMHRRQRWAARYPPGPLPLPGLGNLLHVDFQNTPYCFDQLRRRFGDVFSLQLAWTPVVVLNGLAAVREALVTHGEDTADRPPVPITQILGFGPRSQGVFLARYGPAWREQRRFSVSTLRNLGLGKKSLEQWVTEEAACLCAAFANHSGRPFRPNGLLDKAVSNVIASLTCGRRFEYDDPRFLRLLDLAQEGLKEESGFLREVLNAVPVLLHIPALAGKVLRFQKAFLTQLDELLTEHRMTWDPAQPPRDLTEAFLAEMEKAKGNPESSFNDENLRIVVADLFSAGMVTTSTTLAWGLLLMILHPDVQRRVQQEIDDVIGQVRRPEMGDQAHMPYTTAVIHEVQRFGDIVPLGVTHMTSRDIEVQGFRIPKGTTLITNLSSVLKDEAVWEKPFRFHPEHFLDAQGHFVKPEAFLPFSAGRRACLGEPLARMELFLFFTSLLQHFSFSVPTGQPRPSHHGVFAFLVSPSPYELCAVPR
T7 sequence (P33261 whole entry): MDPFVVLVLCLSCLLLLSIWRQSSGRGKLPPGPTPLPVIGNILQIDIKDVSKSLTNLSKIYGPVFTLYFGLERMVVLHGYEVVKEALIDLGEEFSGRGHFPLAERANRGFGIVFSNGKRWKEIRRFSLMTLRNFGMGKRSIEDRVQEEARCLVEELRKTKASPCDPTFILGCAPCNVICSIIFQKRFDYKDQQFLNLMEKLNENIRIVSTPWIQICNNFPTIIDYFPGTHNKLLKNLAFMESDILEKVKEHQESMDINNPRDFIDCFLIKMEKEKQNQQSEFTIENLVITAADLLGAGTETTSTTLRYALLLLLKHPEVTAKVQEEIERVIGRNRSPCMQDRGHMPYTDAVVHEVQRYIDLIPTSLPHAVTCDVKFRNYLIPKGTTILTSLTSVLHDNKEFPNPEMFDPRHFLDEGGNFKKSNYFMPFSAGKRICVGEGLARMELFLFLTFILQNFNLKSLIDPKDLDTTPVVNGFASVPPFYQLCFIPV
T3 sequence (P11712 whole entry): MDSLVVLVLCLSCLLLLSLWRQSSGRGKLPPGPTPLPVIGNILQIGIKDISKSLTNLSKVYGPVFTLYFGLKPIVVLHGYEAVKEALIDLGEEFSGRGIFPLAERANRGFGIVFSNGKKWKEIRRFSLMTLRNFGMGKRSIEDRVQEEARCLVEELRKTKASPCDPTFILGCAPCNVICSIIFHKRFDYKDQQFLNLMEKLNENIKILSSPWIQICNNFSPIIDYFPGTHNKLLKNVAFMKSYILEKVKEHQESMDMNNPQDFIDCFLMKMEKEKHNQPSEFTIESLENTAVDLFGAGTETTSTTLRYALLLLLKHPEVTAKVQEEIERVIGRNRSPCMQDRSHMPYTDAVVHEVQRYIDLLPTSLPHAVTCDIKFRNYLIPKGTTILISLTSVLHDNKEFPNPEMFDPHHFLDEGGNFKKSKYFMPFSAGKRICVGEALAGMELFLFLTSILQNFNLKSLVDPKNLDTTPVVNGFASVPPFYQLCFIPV

Row | Compound | IC50 [1] | IC50 [2] | IC50 [3] | IC50 [5] | IC50 [6] | IC50 [9] | IC50 [4] | change in the blood glucose level [7] | range of acceptable timing of administration [8]
1 | CC#CCn1c(N2CCNCC2)nc2nc(Oc3ccccc3CC(=O)OC)n(C)c(=O)c21 [Example 4, Methyl 2-[7-(2-butynyl)-1-methyl-6-oxo-8-(piperazin-1-yl)-6,7-dihydro-1H-purin-2-yloxy]phenylacetate trifluoroacetate] | 0.211 µM |  |  |  |  |  |  |  | 
2 | CC#CCn1c(N2CCNCC2)nc2nc(C#N)n(C)c(=O)c21.O=C(O)C(F)(F)F [Example 82, 7-(2-Butynyl)-2-cyano-1-methyl-8-(piperazin-1-yl)-1,7-dihydropurin-6-one trifluoroacetate] |  | ≥ 10 µM | ≥ 10 µM | ≥ 10 µM | ≥ 10 µM | ≥ 10 µM | ≥ 30 µM | no significant change | sufficiently wide ranges of acceptable timing of administration
3 | CC#CCn1c(N2CCNCC2)nc2nc(C(N)=O)n(C)c(=O)c21 [Example 83, 7-(2-Butynyl)-1-methyl-6-oxo-8-(piperazin-1-yl)-6,7-dihydro-1H-purine-2-carboxamide] | 0.0274 µM |  |  |  |  |  |  |  | 
4 | CC#CCn1c(N2CCNCC2)nc2cnn(C)c(=O)c21 [Example 119, 3-(2-Butynyl)-5-methyl-2-(piperazin-1-yl)-3,5-dihydroimidazo[4,5-d]pyridazin-4-one] |  | ≥ 10 µM | ≥ 10 µM | ≥ 10 µM | ≥ 10 µM | ≥ 10 µM | ≥ 30 µM | no significant change | sufficiently wide ranges of acceptable timing of administration
5 | CC#CCn1c(N2CCNCC2)nc2nc(Oc3ccccc3C(N)=O)n(Cc3cccc(C#N)c3)c(=O)c21 [Example 238, 2-[7-(2-Butynyl)-1-(3-cyanobenzyl)-6-oxo-8-(piperazin-1-yl)-6,7-dihydro-1H-purin-2-yloxy]benzamide trifluoroacetate] | 0.00119 µM |  |  |  |  |  |  |  | 

Continued, in another order:

Row | IC50 [1] | IC50 [2] | IC50 [3] | IC50 [5] | IC50 [6] | IC50 [9] | Compound | IC50 [4] | change in the blood glucose level [7] | range of acceptable timing of administration [8]
6 |  | ≥ 10 µM | ≥ 10 µM | ≥ 10 µM | ≥ 10 µM | ≥ 10 µM | CC#CCn1c(N2CCCC(N)C2)nc2cnn(C)c(=O)c21.O=C(O)C(F)(F)F (centres unmarked) [Example 120, 2-(3-Aminopiperidin-1-yl)-3-(2-butynyl)-5-methyl-3,5-dihydroimidazo[4,5-d]pyridazin-4-one trifluoroacetate] | ≥ 30 µM | no significant change | sufficiently wide ranges of acceptable timing of administration
7 | 0.0153 µM | ≥ 10 µM | ≥ 10 µM | ≥ 10 µM | ≥ 10 µM | ≥ 10 µM | CC#CCn1c(N2CCNCC2)nc2nc(Oc3ccccc3C(N)=O)n(C)c(=O)c21 [Example 122, 2-[7-(2-Butynyl)-1-methyl-6-oxo-8-(piperazin-1-yl)-6,7-dihydro-1H-purin-2-yloxy]benzamide] | ≥ 30 µM | no significant change | sufficiently wide ranges of acceptable timing of administration
8 |  | ≥ 10 µM | ≥ 10 µM | ≥ 10 µM | ≥ 10 µM | ≥ 10 µM | CC#CCn1c(N2CCNCC2)nc2nc(C#N)n(Cc3ccccc3C#N)c(=O)c21.Cl [Example 229, 7-(2-Butynyl)-1-(2-cyanobenzyl)-6-oxo-8-(piperazin-1-yl)-6,7-dihydro-1H-purine-2-carbonitrile hydrochloride] | ≥ 30 µM | no significant change | sufficiently wide ranges of acceptable timing of administration
9 | 0.00144 µM |  |  |  |  |  | CC#CCn1c(N2CCNCC2)nc2nc(Oc3ccccc3C(N)=O)n(Cc3ccc(C#N)cc3)c(=O)c21 [Example 235, 2-[7-(2-Butynyl)-1-(4-cyanobenzyl)-6-oxo-8-(piperazin-1-yl)-6,7-dihydro-1H-purin-2-yloxy]benzamide trifluoroacetate] |  |  | 
10 |  | ≥ 10 µM | ≥ 10 µM | ≥ 10 µM | ≥ 10 µM | ≥ 10 µM | CC#CCn1c(N2CCNCC2)nc2cnn(Cc3ccccc3C#N)c(=O)c21.O=C(O)C(F)(F)F [Example 267, 2-[3-(2-Butynyl)-4-oxo-2-(piperazin-1-yl)-3,4-dihydroimidazo[4,5-d]pyridazin-5-ylmethyl]benzonitrile trifluoroacetate] | ≥ 30 µM | no significant change | sufficiently wide ranges of acceptable timing of administration
